Measured values from PubChem BioAssay (NCI).
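How tested: cells in 96-well plates exposed to compound for 48 hours at five concentrations. The concentration for 50% growth inhibition is given as GI50. TGI marks complete inhibition of growth.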

What was measured:
Test in all cases: NCI-60 cell line screen, 48 h
[1] = test system: MOLT-4 leukemia
[2] = test system: NCI-H460 lung
[3] = test system: SF-539 CNS
[4] = test system: UO-31 renal
[5] = test system: SK-OV-3 ovarian
[6] = test system: SW-620 colon
[7] = test system: CCRF-CEM leukemia
[8] = test system: MDA-N
[9] = test system: NCI-H522 lung
[10] = test system: CAKI-1 renal
[11] = test system: TK-10 renal
[12] = test system: OVCAR-8 ovarian
[13] = test system: A498 renal
[14] = test system: SF-295 CNS
[15] = test system: HOP-92 NSCLC
[16] = test system: K-562 leukemia
[17] = test system: SF-268 CNS
[18] = test system: NCI/ADR-RES ovarian
[19] = test system: COLO 205 colon
[20] = test system: MALME-3M melanoma
[21] = test system: BT-549 breast
[22] = test system: MDA-MB-231 breast
[23] = test system: SNB-19 CNS
[24] = test system: A549 NSCLC
[25] = test system: DU-145 prostate
[26] = test system: UACC-257 melanoma
[27] = test system: SN12C renal
[28] = test system: RPMI-8226 leukemia
[29] = test system: MCF7 breast
[30] = test system: OVCAR-5 ovarian
[31] = test system: SK-MEL-28 melanoma
[32] = test system: NCI-H226 lung
[33] = test system: ACHN renal
[34] = test system: MDA-MB-435
[35] = test system: SNB-75 CNS
[36] = test system: HCT-15 colon
[37] = test system: KM12 colon
[38] = test system: HL-60(TB) leukemia
[39] = test system: IGROV1 ovarian
[40] = test system: PC-3 prostate
[41] = test system: U251 CNS
[42] = test system: OVCAR-4 ovarian
[43] = test system: SR leukemia
[44] = test system: EKVX NSCLC
[45] = test system: M14 melanoma
[46] = test system: SK-MEL-5 melanoma
[47] = test system: HCT-116 colon
[48] = test system: OVCAR-3 ovarian
[49] = test system: LOX IMVI melanoma
[50] = test system: HOP-62 NSCLC
[51] = test system: SK-MEL-2 melanoma
[52] = test system: HS 578T breast
[53] = test system: HT29 colon
[54] = test system: T-47D breast
[55] = test system: RXF 393 renal
[56] = test system: 786-0 renal

Structure (SMILES): COc1cc(C2c3cc4c(cc3C3OC[C@@H]2C3CO)OCO4)cc(OC)c1OC (some centres not stated)
- TGI [1]: > 100 µM
- TGI [2]: 47.8 µM
- GI50 [3]: 17.7 µM
- TGI [3]: 37.3 µM
- TGI [4]: > 100 µM
- TGI [5]: > 100 µM
- TGI [6]: > 100 µM
- TGI [7]: > 100 µM
- TGI [8]: 36.1 µM
- TGI [9]: 47.8 µM
- TGI [10]: > 100 µM
- TGI [11]: > 100 µM
- TGI [12]: > 100 µM
- TGI [13]: > 100 µM
- TGI [14]: > 100 µM
- TGI [15]: > 100 µM
- TGI [16]: > 100 µM
- TGI [17]: > 100 µM
- TGI [18]: 39.3 µM
- TGI [19]: 33.6 µM
- TGI [20]: > 100 µM
- TGI [21]: 97.6 µM
- TGI [22]: > 100 µM
- TGI [23]: > 100 µM
- TGI [24]: > 100 µM
- GI50 [25]: 30.4 µM
- TGI [25]: > 100 µM
- TGI [26]: 76.5 µM
- GI50 [27]: 59.4 µM
- TGI [27]: > 100 µM
- TGI [28]: > 100 µM
- TGI [29]: > 100 µM
- TGI [30]: > 100 µM
- TGI [31]: > 100 µM
- TGI [32]: 47 µM
- TGI [33]: > 100 µM
- TGI [34]: 51.1 µM
- TGI [35]: > 100 µM
- TGI [36]: 71.5 µM
- TGI [37]: > 100 µM
- TGI [38]: 18.7 µM
- TGI [39]: > 100 µM
- TGI [40]: > 100 µM
- TGI [41]: > 100 µM
- TGI [42]: > 100 µM
- TGI [43]: > 100 µM
- TGI [44]: > 100 µM
- TGI [45]: > 100 µM
- TGI [46]: 27.9 µM
- GI50 [47]: 30.3 µM
- TGI [47]: > 100 µM
- GI50 [48]: 23.9 µM
- TGI [48]: 97.9 µM
- TGI [49]: > 100 µM
- GI50 [50]: 47.4 µM
- TGI [50]: > 100 µM
- TGI [51]: > 100 µM
- TGI [52]: 95.7 µM
- TGI [53]: > 100 µM
- TGI [54]: > 100 µM
- TGI [55]: > 100 µM
- TGI [56]: > 100 µM
